Results from ChEMBL document CHEMBL3860026, “Depsidones from Lichens as Natural Product Inhibitors of M-Phase Phosphoprotein 1, a Human Kinesin Required for Cytokinesis” (J Nat Prod, 2016).
Activity calls are given as the source filed them. The rule behind the calls is not given here.

Experiments:
[1] = Passive permeability of the compound assessed as compound recovery at 10 uM after 5 hrs by PAMPA; format: ADME; settings: read-out: Drug recovery
[2] = Cytotoxicity against human J82 cells assessed as growth inhibition after 72 hrs by Alamar Blue assay; format: functional, cell-based; settings: J82, 72 h
[3] = Chemical stability of the compound at 5 uM after 15 to 120 mins by LC-MS/MS method; format: physicochemical
[4] = Cytotoxicity against human UM-UC-3 cells assessed as growth inhibition after 72 hrs by Alamar Blue assay; format: functional, cell-based; settings: UMUC3, 72 h
[5] = Apparent passive permeability of the compound at 10 uM after 5 hrs by PAMPA; format: ADME; settings: pampa, 5 h, 10 µM
[6] = target: T1, Kinesin-like protein KIF20B (Homo sapiens, UniProt Q96Q89); settings: 1 to 20 uM
[7] = target: T2, Chromosome-associated kinesin KIF4A (Homo sapiens) (UniProt O95239); experiment: Inhibition of microtubule-stimulated ATPase activity of human Kif4A at 200 uM by pyruvate kinase/lactate dehydrogenase-linked assay
T2 sequence (whole entry): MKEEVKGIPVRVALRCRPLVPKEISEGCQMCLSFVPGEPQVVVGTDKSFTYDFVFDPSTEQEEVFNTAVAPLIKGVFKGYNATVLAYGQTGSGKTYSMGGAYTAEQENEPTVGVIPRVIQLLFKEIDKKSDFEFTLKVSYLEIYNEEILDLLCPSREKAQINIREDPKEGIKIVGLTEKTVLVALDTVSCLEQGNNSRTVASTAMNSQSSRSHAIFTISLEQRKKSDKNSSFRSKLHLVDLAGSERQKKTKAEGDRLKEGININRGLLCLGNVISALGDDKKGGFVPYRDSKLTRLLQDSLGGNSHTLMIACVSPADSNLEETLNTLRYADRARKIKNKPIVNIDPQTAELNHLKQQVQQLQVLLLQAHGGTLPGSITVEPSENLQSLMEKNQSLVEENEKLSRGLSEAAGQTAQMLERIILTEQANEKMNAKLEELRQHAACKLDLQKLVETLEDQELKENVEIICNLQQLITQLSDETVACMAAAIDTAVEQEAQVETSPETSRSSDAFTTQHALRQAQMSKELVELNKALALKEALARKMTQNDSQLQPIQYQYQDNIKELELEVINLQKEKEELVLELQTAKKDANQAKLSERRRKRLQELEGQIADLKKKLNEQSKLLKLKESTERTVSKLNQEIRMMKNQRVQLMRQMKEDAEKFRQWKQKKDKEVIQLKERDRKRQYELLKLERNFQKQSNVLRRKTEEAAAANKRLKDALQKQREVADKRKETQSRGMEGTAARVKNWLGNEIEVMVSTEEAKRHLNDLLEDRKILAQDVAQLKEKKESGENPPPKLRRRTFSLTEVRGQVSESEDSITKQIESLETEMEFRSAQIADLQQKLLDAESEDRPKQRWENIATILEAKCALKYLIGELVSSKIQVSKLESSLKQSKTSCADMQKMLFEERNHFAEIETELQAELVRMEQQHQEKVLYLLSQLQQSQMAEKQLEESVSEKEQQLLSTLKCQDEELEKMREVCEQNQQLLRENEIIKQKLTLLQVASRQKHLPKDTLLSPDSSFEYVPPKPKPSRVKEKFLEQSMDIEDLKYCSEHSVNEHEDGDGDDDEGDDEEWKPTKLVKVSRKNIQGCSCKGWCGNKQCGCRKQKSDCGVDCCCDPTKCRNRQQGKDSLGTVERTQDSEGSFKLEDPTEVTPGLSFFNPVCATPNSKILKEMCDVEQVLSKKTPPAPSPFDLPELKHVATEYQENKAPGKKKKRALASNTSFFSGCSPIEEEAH

[8] = target: T1, Kinesin-like protein KIF20B; experiment: Inhibition of basal ATPase activity of N-terminal His6-tagged/SUMO-fused human MPP1 motor domain (57 to 491 residues) expressed in Escherichia coli BL21 CodonPlus by pyruvate kinase/lactate dehydrogenase-linked assay
[9] = n-octanol-buffer distribution co-efficient, log D of the compound at pH 7.4 by shake flask method; format: physicochemical
[10] = target: T3, Kinesin-like protein KIF23 (Homo sapiens) (UniProt Q02241); experiment: Inhibition of microtubule-stimulated ATPase activity of human MKLP-1 at 200 uM by pyruvate kinase/lactate dehydrogenase-linked assay
T3 sequence (whole entry): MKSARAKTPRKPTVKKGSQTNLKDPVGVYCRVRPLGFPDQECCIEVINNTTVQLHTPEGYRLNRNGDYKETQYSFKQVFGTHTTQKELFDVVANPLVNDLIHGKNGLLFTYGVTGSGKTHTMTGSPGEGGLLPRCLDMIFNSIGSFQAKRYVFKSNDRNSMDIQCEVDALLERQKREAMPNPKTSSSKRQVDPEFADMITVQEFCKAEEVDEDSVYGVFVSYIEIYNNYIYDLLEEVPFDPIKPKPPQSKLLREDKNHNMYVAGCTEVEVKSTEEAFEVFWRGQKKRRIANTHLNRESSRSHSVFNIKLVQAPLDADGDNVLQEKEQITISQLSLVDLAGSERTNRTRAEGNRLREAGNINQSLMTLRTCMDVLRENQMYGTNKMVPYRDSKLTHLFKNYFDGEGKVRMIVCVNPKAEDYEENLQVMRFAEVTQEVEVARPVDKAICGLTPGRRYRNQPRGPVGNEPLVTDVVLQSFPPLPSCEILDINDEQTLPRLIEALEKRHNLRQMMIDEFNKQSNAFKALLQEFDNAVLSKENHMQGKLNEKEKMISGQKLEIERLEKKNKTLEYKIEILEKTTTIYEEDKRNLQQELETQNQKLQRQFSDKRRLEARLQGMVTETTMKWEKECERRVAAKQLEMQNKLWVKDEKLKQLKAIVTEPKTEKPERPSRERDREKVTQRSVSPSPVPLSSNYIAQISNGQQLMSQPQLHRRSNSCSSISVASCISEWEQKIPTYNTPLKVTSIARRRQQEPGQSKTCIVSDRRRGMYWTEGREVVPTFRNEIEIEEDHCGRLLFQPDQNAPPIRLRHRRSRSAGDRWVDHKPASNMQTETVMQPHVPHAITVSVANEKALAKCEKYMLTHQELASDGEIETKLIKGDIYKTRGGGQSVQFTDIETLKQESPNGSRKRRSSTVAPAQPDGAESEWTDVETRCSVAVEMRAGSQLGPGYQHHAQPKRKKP

[11] = Cytotoxicity against human BxPC3 cells assessed as growth inhibition after 72 hrs by Alamar Blue assay; format: functional, cell-based; settings: BXPC-3, 72 h
[12] = target: T1, Kinesin-like protein KIF20B; experiment: Inhibition of basal ATPase activity of N-terminal His6-tagged/SUMO-fused human MPP1 motor domain (2 to 477 residues) expressed in Escherichia coli BL21 CodonPlus by pyruvate kinase/lactate dehydrogenase-linked assay
[13] = Cytotoxicity against human K562 cells assessed as growth inhibition after 72 hrs by Alamar Blue assay; format: functional, cell-based; settings: K562, 72 h

T1 sequence (Q96Q89 whole entry): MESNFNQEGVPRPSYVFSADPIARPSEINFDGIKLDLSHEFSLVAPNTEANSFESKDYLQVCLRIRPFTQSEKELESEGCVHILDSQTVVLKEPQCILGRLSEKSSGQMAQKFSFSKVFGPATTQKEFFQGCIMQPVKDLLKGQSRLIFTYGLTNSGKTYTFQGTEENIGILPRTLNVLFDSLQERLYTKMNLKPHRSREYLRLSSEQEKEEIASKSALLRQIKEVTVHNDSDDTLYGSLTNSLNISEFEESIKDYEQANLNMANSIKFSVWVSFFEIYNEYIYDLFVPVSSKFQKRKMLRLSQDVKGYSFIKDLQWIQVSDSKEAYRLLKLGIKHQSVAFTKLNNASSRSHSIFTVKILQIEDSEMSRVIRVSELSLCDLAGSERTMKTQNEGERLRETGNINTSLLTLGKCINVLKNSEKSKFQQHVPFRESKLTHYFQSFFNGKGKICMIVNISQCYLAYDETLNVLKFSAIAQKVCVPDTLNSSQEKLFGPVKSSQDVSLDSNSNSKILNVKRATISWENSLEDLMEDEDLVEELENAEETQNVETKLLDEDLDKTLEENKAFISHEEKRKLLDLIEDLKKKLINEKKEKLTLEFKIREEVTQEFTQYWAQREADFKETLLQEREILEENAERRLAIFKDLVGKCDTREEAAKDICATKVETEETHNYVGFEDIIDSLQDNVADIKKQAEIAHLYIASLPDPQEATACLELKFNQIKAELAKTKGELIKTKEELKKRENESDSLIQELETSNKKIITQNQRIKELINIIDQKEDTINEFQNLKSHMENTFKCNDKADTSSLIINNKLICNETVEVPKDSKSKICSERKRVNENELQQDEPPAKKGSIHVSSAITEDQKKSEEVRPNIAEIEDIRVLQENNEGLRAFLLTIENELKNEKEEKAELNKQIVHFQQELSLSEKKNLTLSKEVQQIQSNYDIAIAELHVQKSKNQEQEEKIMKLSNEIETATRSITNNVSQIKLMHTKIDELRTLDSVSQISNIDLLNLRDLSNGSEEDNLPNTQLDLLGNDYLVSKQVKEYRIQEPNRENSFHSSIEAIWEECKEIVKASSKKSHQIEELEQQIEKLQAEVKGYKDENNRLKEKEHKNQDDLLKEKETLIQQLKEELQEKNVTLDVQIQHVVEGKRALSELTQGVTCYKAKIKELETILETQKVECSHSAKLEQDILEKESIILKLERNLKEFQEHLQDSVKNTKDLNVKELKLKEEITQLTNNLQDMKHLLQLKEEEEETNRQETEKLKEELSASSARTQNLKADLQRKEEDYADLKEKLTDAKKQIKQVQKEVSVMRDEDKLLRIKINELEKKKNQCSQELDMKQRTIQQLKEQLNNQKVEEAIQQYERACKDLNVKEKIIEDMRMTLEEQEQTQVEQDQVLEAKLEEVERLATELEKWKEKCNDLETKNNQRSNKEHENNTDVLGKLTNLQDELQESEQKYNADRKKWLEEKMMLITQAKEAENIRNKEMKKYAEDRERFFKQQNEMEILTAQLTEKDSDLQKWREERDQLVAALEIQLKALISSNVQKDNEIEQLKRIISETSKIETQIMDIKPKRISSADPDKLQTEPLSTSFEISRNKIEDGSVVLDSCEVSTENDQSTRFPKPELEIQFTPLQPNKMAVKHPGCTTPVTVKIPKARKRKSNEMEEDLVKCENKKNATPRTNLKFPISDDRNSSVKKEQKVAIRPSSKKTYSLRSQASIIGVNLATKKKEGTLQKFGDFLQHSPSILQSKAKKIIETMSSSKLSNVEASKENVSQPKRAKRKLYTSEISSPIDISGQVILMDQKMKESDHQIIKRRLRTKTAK

recovery at 5 h, 10 µM [1]: 77%
Stability [3]: Stable
Papp [5]: Impermeable
inhibition [6]: Active
inhibition [7]: 40%
IC50 [8]: 9.9 µM
Imax [8]: 85%
logD [9]: 3
inhibition [10]: 40%
IC50 [12]: 10.4 µM
Imax [12]: 90%
Structure (SMILES): CCCCCC(=O)Cc1cc(O)cc2c1C(=O)Oc1cc(O)c(C(=O)O)c(CCCCC)c1O2 [PHYSODIC ACID]
EC50 [2]: 38.2 µM
EC50 [4]: 31.8 µM
EC50 [11]: 37.3 µM
EC50 [13]: 32.6 µM
